Measured values reported in patent US20070117857A1, “Substituted 3-amido-tetrahydro-indazolyl cannabinoid modulators” (priority 2005, published 2007).

Columns and labels:
human CB2 receptor = target: T1, human CB2 receptor (Homo sapiens, UniProt P34972); assay: Binding assay for CB2 agonists or inverse agonists ([3H]-CP-55,940 displacement); conditions: test concentration of 0.2 μM; membranes of SK-N-MC cells expressing human CB2
T1 construct: expressed in transfected cells; host or cells: SK-N-MC cells (semi-purified membrane pellet)
T1 sequence (P34972 whole entry): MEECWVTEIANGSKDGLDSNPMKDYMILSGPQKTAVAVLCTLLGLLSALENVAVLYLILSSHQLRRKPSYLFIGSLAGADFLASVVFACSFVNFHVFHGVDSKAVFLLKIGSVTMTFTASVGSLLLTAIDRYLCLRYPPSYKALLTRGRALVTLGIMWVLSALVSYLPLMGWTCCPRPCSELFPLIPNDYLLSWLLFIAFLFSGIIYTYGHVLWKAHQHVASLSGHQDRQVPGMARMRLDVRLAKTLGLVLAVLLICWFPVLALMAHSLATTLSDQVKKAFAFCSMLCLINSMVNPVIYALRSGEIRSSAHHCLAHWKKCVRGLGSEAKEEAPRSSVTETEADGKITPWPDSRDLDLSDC
Method: (§1) The human CB1 and CB2 receptors were stably expressed in SK-N-MC cells transfected with pcDNA3 CB1 (human) or pcDNA3 CB-2 (human). The cells were grown in T-180 cell culture flasks under standard cell culture conditions at 37° C. in a 5% CO2 atmosphere. The cells were harvested by trysinization and homogenized in a homogenization buffer (10 mM Tris, 0.2 mM MgCl2, 5 mM KCl, with protease inhibitors aprotinin, leupeptin, pepstatin A and bacitracin) and centrifuged (2000 g). The supernatant was then centrifuged in 2M sucrose (31,300 g) to produce a semi-purified membrane pellet. The pellet was resuspended in homogenization and stored at −80° C.
(§2) On the day of the assay, the pellet was thawed on ice and diluted in assay buffer (50 mM Tris-HCl, 5 mM MgCl2, 2.5 mM EDTA, 0.5 mg/mL fatty acid free bovine serum albumin, pH 7.5). […] Non-specific binding was measured in wells containing WIN 55,212 (10 uM). […] The Unifilter plate was dried, a scintillation cocktail was added to each well and the counts representing binding were quantitated in a TopCount scintillation counter.
(§3) For compounds tested, an IC50 binding value was obtained from percent inhibition studies in which various test concentrations were used. The binding value was calculated by linear regression. […]

human CB1 receptor [1] = target: T2, human CB1 receptor (Homo sapiens, UniProt P21554); assay: Binding assay for CB1 agonists or inverse agonists ([3H]-CP-55,940 displacement); design: expressed in transfected cells; host or cells: SK-N-MC cells (semi-purified membrane pellet); conditions: test concentration of 0.2 μM; membranes of SK-N-MC cells expressing human CB1
T2 sequence (P21554 whole entry): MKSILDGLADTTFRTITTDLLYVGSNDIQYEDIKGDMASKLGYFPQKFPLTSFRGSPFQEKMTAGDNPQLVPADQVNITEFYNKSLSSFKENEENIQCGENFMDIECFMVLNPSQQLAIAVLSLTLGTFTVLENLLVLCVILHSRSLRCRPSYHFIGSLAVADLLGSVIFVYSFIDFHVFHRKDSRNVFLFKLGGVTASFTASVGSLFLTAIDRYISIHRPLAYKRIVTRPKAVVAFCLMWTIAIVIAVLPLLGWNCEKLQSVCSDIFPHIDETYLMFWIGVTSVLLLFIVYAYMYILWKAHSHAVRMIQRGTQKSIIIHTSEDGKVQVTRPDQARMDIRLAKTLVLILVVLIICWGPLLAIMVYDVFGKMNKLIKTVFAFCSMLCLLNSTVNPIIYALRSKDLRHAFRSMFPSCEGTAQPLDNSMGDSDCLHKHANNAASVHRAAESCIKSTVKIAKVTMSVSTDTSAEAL
Method: as §1, §2, §3

human CB1 receptor [2] = target: T2, human CB1 receptor; assay: Functional cell-based assay, CB1 receptor mediated change in CRE β-gal expression; design: expressed in transfected cells; host or cells: SK-N-MC cells; conditions: SK-N-MC cells with CRE β-gal and human CB1; forskolin treated; β-galactosidase activity; read-out: EC50 value for functional activity as a CB1 receptor functional inverse agonist
From the text: The CB1 and CB2.receptors are G-protein coupled receptors (GPCR) that influence cell function via the Gi-protein. These receptors modulate the activity of intracellular adenylate cyclase, which in turn produces the intracellular signal messenger cyclic-AMP (cAMP).
At baseline, or during non-ligand bound conditions, these receptors are constitutively active and tonically suppress adenylate cyclase activity. The binding of an agonist causes further receptor activation and produces additional suppression of adenylate cyclase activity. The binding of an inverse agonist inhibits the constitutive activity of the receptors and results in an increase in adenylate cyclase activity.
Test compounds were evaluated in SK-N-MC cells which, using standard transfection procedures, were stably transfected with human cDNA for pcDNA3-CRE β-gal and pcDNA3 CB1 receptor (human) or pcDNA3 CB2 receptor (human). By expressing CRE β-gal, the cells produced β-galactosidase in response to CRE promoter activation by cAMP. Cells expressing CRE β-gal and either the human CB1 or CB2 receptor will produce less β-galactosidase when treated with a CB1/CB2 agonist and will produce more β-galactosidase when treated with a CB1/CB2 inverse agonist.
The cells were grown in 96-well plates under standard cell culture conditions at 37° C. in a 5% CO2 atmosphere. After 3 days, the media was removed and a test compound in media (wherein the media was supplemented with 2 mM L-glutamine, […] sodium pyruvate, 0.1% low fatty acid FBS (fetal bovine serum) and antibiotics) was added to the cell. The plates were incubated for 30 minutes at 37° C. and the plate cells were then treated with forskolin over a 4-6 hour period, then washed and lysed. The β-galactosidase activity was quantitated using commercially available kit reagents (Promega Corp. Madison, Wis.) and a Vmax Plate Reader (Molecular Devices, Inc).
For cells expressing CRE β-gal and the CB1 receptor, CB1 agonists reduced β-galactosidase activity in a dose-dependent manner and CB1 inverse agonists increased β-galactosidase activity in a dose-dependent manner.
The change in β-galactosidase activity was determined by setting a vehicle treated cell's activity value at 100% and expressing the β-galactosidase activity measured in a corresponding compound treated cell as a percent of the vehicle treated cell activity.
The EC50 value for functional activity for compounds tested was calculated by linear regression and was obtained from studies in which varying compound concentrations were used.

SMILES | CB2 binding (human CB2 receptor) [%] | CB1 binding (human CB1 receptor [1]) [%] | EC50 (human CB1 receptor [2]) [nM]
O=C(NN1CCCCC1=O)c1nn(-c2ccc(Cl)cc2Cl)c2c1CCC/C2=C\c1ccc(F)cc1 [Compound 3, (7E)-1-(2,4-dichloro-phenyl)-7-(4-fluoro-benzylidene)-4,5,6,7-tetrahydro-1H-indazole-3-carboxylic acid(2-oxo-piperidin-1-yl)-amide] | 28 | 19 | 
C[N+]1(NC(=O)c2nn(-c3ccc(Cl)cc3Cl)c3c2CCC/C3=C\c2ccc(F)cc2)CCCCC1 [Compound 4, (7E)-1-{[1-(2,4-dichloro-phenyl)-7-(4-fluoro-benzylidene)-4,5,6,7-tetrahydro-1H-indazole-3-carbonyl]-amino}-1-methyl-piperidinium] |  |  | 7.2
COC1CCN(NC(=O)c2nn(-c3ccc(Cl)cc3Cl)c3c2CCC/C3=C\c2ccc(F)cc2)CC1 [Compound 2, (7E)-1-(2,4-dichloro-phenyl)-7-(4-fluoro-benzylidene)-4,5,6,7-tetrahydro-1H-indazole-3-carboxylic acid(4-methoxy-piperidin-1-yl)-amide] |  |  | 4
O=C(NN1C=CCCC1)c1nn(-c2ccc(Cl)cc2Cl)c2c1CCC/C2=C\c1ccc(F)cc1 [Compound 5, (7E)-1-(2,4-dichloro-phenyl)-7-(4-fluoro-benzylidene)-4,5,6,7-tetrahydro-1H-indazole-3-carboxylic acid(3,4-dihydro-2H-pyridin-1-yl)-amide] |  |  | 1.4
O=C(NN1CCC(O)CC1)c1nn(-c2ccc(Cl)cc2Cl)c2c1CCC/C2=C\c1ccc(F)cc1 [Compound 1, (6E)-1-(2,4-dichloro-phenyl)-7-(4-fluoro-benzylidene)-4,5,6,7-tetrahydro-1H-indazole-3-carboxylic acid (4-hydroxy-piperidin-1-yl)-amide] |  |  | 40
